Results: US20220146526A1, “METHOD FOR EVALUATING SAMPLE, ANALYSIS METHOD, METHOD FOR DETECTING DEGRADED SAMPLE, MARKER FOR DETECTING DEGRADED BLOOD PLASMA SAMPLE, AND MARKER FOR DETECTING DEGRADED SERUM SAMPLE” (SHIMADZU CORPORATION, priority 2019, published 2022)
Entries after “also recorded” stand apart in the source; their conditions may differ.

Legend:
Format in all cases: physicochemical, human
[1] = GC/MS of serum sample: number of times of freezing and thawing (Table I); design: key to Rate of increase or decrease / Rate of increase or decrease (first value, increase): detection intensity relative to 2 freeze-thaw cycles = 1; conditions: for Number of times when compound is affected: detection intensity changed by 30% or more vs 2 times of freezing and thawing
Method in brief: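 Serum was isolated after centrifugation at room temperature (3500 rpm, 5 min), frozen, and put through 2, 4, 6 or 10 freeze–thaw cycles. Samples were methoxymated and trimethylsilylated, then run by electron-ionization GC/MS in MRM mode on a BPX5 column (60 to 330 °C). Detection intensity is given relative to the 2-cycle sample, set as 1.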

[2] = GC/MS of blood plasma sample: time from blood collection to cooling of blood (Table B); design: key to Rate of increase or decrease / Rate of increase or decrease (first value, increase): detection intensity relative to 1 at cooling time ≤1 min; conditions: for Rate of increase or decrease: detection intensity relative to 1 at 1 minute or less, blood collection to cooling 5 minutes; for Increase or decrease: detection intensity, blood collection to cooling 5 minutes or more vs 1 minute or less
Experimental: (§1) At room temperature, 5 mL of blood from a healthy subject was taken into a blood-collecting vessel containing EDTA, and the blood-collecting vessel was inverted for mixing, then cooled, and allowed to stand at 4° C. Here, in order to investigate how the detection intensity of molecules contained in the sample was affected in a case where the time to cooling was set to 5 minutes or more as compared to that in a case where the time to cooling was set to 1 minute or less, preparations were performed under both the former condition and the latter condition. After standing, the blood sample was subjected to centrifugation under a condition of 4° C., 3000 rpm, and 15 minutes. […] After centrifugation, the blood-collecting vessel was left to stand at room temperature for 30 minutes, and the blood plasma was isolated during this 30 minutes. The obtained blood plasma sample was frozen and stored. Here, in order to investigate how the detection intensity of molecules contained in the sample was affected in cases where freezing and thawing was performed 4 times, 6 times, and 10 times after freezing as compared to that in a case where freezing and thawing was performed 2 times after freezing, freezing and thawing was performed under the respective conditions of 2, 4, 6, and 10 times.
(§2) Frozen blood plasma samples and serum samples were subjected to GC/MS or LC/MS. In GC/MS, the blood plasma samples and serum samples were subjected to methoxymation and trimethylsilylation and then introduced to GC-MS.
(§3) GC/MS was conducted using GCMS·TQ8040 (Shimadzu Corporation) that was a GC·MS equipped with AOC·20i (Shimadzu Corporation) as an autosampler.
(§4) Column: BPX5 (inner diameter of 0.25 mm, length of 30 m, and film thickness of 0.25 μm) (SGE)
(§5) Column temperature: maintained at 60° C. for 2 minutes, then raised at 15° C./min, and maintained at 330° C. for 3 minutes.
(§6) Inlet temperature: 250° C.
(§7) Carrier gas control mode: constant linear velocity of 39.0 cm/sec
(§8) Sample introduction method: split (split ratio of 30:1) Injection volume: 1 μL
(§9) Ionization method: electron ionization
(§10) Ionization current: 60 μA
(§11) Interface temperature: 280° C.
(§12) Ion source temperature: 200° C.
(§13) Mode: multiple reaction monitoring (MRM)
Table B presents compounds of which the detection intensity increased or decreased by 30% or more in a case where the time from blood collection to cooling of blood, when a blood plasma sample was analyzed by GC/MS, was set to 5 minutes or more as compared to that in a case where the time was set to 1 minute or less. The rate of increase or decrease in Table B is the value of detection intensity relative to 1 that is the detection intensity in a case where the time from blood collection to cooling is set to 1 minute or less.

[3] = LC/MS of serum sample: time from blood collection to centrifugation (Table J)
Experimental: After standing, the blood sample was subjected to centrifugation under a condition of room temperature, 3500 rpm, and 5 minutes. […] After centrifugation, the blood-collecting vessel was left to stand at room temperature, and the serum was isolated during this time. Here, in order to investigate how the detection intensity of molecules contained in the sample was affected in cases where the time during which the blood-collecting vessel was left at room temperature was set to 1 hour and 6 hours as compared to that in a case where the time was set to 30 minutes, preparations were performed under the respective conditions of 30 minutes, 1 hour, and 6 hours. The obtained serum sample was frozen and stored. Here, in order to investigate how the detection intensity of molecules contained in the sample was affected in cases where freezing and thawing was performed 4 times, 6 times, and 10 times after freezing as compared to that in a case where freezing and thawing was performed 2 times after freezing, freezing and thawing was performed under the respective conditions of 2, 4, 6, and 10 times.
as §2
(§14) Analysis column: Discovery HS F5-3 (inner diameter of 2.1 mm, length of 150 mm, film thickness of 3 μm) (Sigma-Aldrich)
(§15) Column temperature: 40° C.
(§16) (A) 0.1% formic acid (dissolved in water)
(§17) (B) 0.1% formic acid (dissolved in acetonitrile)
(§18) Flow velocity: 0.25 mL/min
(§19) Ionization method: electrospray
(§20) Temperature: • Desolvation Line (DL) temperature: 250° C. • Heat block temperature: 400° C. • Interface temperature: 300° C.
(§21) Gas flow rate: • Nebulizer gas flow rate: 3.0 L/min • Drying gas flow rate: 10.0 L/min • Heating gas flow rate: 10.0 L/min
as §13
The rate of increase or decrease in Table J is the value of detection intensity relative to 1 that is the detection intensity in a case where the time from blood collection to centrifugation is set to 15 minutes.

[4] = LC/MS of blood plasma sample: number of times of freezing and thawing (Table F)
Experimental: as §1, §2, §14, §15, §16, §17, §18, §19, §20, §21, §13
The rate of increase or decrease in Table F is the value of detection intensity relative to 1 that is the detection intensity in a case where the number of times of freezing and thawing is set to 2 times.

[5] = LC/MS of blood plasma sample: time from blood collection to centrifugation (Table D); conditions: blood collection to centrifugation
Method in brief: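 Healthy-subject blood (5 mL, EDTA) cooled and held at 4 °C before centrifugation (4 °C, 3000 rpm, 15 min), with plasma then frozen. LC/MS on Discovery HS F5-3 column at 40 °C, 0.1% formic acid water/acetonitrile, 0.25 mL/min, electrospray, MRM; intensities relative to 15 min collection-to-centrifugation set as 1.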

[6] = LC/MS of serum sample: number of times of freezing and thawing (Table M); design: key to Rate of increase or decrease: detection intensity relative to 1 at 2 freeze-thaw cycles
Method in brief: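 Serum was isolated at room temperature after centrifugation at room temperature, 3500 rpm, 5 minutes, then frozen and freeze-thawed 2, 4, 6 or 10 times. LC/MS used a Discovery HS F5-3 column at 40° C with formic acid water/acetonitrile, electrospray MRM. Intensity is relative to 2 freeze-thaw cycles.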

[7] = GC/MS of serum sample: time from blood collection to centrifugation (Table G); conditions: blood collection to centrifugation; for Rate of increase or decrease: detection intensity relative to 1 at 15 minutes; for Increase or decrease: detection intensity
Method in brief: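 Blood was held for varying times before centrifugation (room temperature, 3500 rpm, 5 min); serum was frozen, then methoxymated and trimethylsilylated for GC/MS with electron ionization in MRM mode. Values are detection intensities relative to the 15-minute collection-to-centrifugation condition, set as 1.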

[8] = GC/MS of blood plasma sample: time from blood collection to centrifugation (Table A); conditions: for Increase or decrease: detection intensity
Experimental: as §1, §2, §3, §4, §5, §6, §7, §8, §9, §10, §11, §12, §13
The rate of increase or decrease in Table A is the value of detection intensity relative to 1 that is the detection intensity in a case where the time from blood collection to centrifugation is set to 15 minutes.

[9] = GC/MS of serum sample: time from centrifugation to isolation (Table H); design: key to Rate of increase or decrease / Rate of increase or decrease (first value, increase): detection intensity relative to 1 at 30 min centrifugation-to-isolation; conditions: for Increase or decrease: detection intensity
Method in brief: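 Blood was centrifuged at room temperature, 3500 rpm, 5 min, and the vessel left at room temperature for 30 min, 1 h or 6 h before serum isolation. Serum was methoxymated, trimethylsilylated and analysed by GC/MS with electron ionization in MRM mode; intensities expressed relative to the 30-min condition (=1).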

[10] = detection intensity, serum, GC/MS, freezing and thawing 4 times vs 2 times
[11] = serum sample, GC/MS, detection intensity vs 2 times of freezing and thawing

O=CC(=O)O [Glyoxylic acid]
Rate of increase or decrease ([1]; detection intensity relative to 1 at 2 times, serum, GC/MS, freezing and thawing 4 times): 0.63 | Increase or decrease [1, 10]: Decrease | Rate of increase or decrease [2]: 1.37 | Increase or decrease [2]: Increase

N=C(N)NCCC[C@H](N)C(=O)O [Arginine]
Rate of increase or decrease ([1]; detection intensity relative to 1 at 2 times, serum, GC/MS, freezing and thawing 10 times): 1.51 | Increase or decrease ([1]; detection intensity, serum, GC/MS, freezing and thawing 10 times vs 2 times): Increase | Rate of increase or decrease ([3]; after 6 hours from blood collection to centrifugation, detection intensity relative to 1 at 15 minutes): 0.54 | Increase or decrease ([3]; serum sample, LC/MS, detection intensity vs 15 minutes from blood collection to centrifugation): Decrease | Time when compound is affected ([3]; serum sample, LC/MS, time from blood collection to centrifugation, detection intensity changed by 30% or more vs 15 minutes): After 6 hours | Rate of increase or decrease ([4]; detection intensity relative to 1 at 2 times, freezing and thawing 4 times): 1.34 | Increase or decrease ([4]; detection intensity, freezing and thawing 4 times vs 2 times): Increase | Rate of increase or decrease ([5]; detection intensity relative to 1 at 15 minutes, after 6 hours): 0.69 | Increase or decrease ([5]; detection intensity, after 6 hours vs 15 minutes): Decrease | Rate of increase or decrease ([6]; 6 times of freezing and thawing, detection intensity relative to 1 at 2 times): 0.64 | Number of times when compound is affected ([6]; serum sample, LC/MS, detection intensity changed by 30% or more vs 2 times of freezing and thawing): 6 times | Increase or decrease ([6]; serum sample, LC/MS, detection intensity vs 2 times of freezing and thawing): Decrease

O=C(O)CO [Glycolic acid]
Rate of increase or decrease ([1]; 10 times of freezing and thawing, detection intensity relative to 1 at 2 times): 0.66 | Number of times when compound is affected ([1]; serum sample, GC/MS): 10 times | Increase or decrease [1, 11]: Decrease | Rate of increase or decrease [2]: 0.61 | Increase or decrease [2]: Decrease | Rate of increase or decrease ([7]; after 4 hours): 1.40 | Increase or decrease ([7]; after 4 hours vs 15 minutes): Increase

CCC(=O)C(=O)O [2-Ketobutyric acid]
Increase or decrease ([8]; blood collection to centrifugation, after 4 hours vs 15 minutes): Different from individual | Rate of increase or decrease (second value, decrease) ([8]; different from individual to individual, individuals with decrease, relative to 1 at 15 minutes, collection to centrifugation, after 4 hours): 0.64 | Rate of increase or decrease (first value, increase) ([8]; different from individual to individual, individuals with increase, relative to 1 at 15 minutes, collection to centrifugation, after 4 hours): 1.48 | Rate of increase or decrease [2]: 0.67 | Increase or decrease [2]: Decrease

NCCS(=O)O [Hypotaurine]
Rate of increase or decrease ([8]; detection intensity relative to 1 at 15 minutes, blood collection to centrifugation, after 8 hours): 1.36 | Increase or decrease ([8]; blood collection to centrifugation, after 8 hours vs 15 minutes): Increase | Rate of increase or decrease [2]: 1.43 | Increase or decrease [2]: Increase | Rate of increase or decrease ([7]; after 4 hours): 1.69 | Increase or decrease ([7]; after 4 hours vs 15 minutes): Increase

Cn1c(=O)[nH]c2ncn(C)c2c1=O [Paraxanthine]
Rate of increase or decrease ([1]; 10 times of freezing and thawing, relative to 1 at 2 times, different from individual to individual, first value (increase)): 2.65 | Rate of increase or decrease ([1]; 10 times of freezing and thawing, relative to 1 at 2 times, different from individual to individual, second value (decrease)): 0.63 | Number of times when compound is affected ([1]; serum sample, GC/MS): 10 times | Increase or decrease [1, 11]: Different from individual | Increase or decrease ([9]; after 6 hours vs 30 minutes): Different from individual | Rate of increase or decrease (second value, decrease) ([9]; different from individual to individual, individuals with decrease, relative to 1 at 30 minutes, after 6 hours): 0.61 | Rate of increase or decrease (first value, increase) ([9]; different from individual to individual, individuals with increase, relative to 1 at 30 minutes, after 6 hours): 2.04 | Increase or decrease [2]: Different from individual | Rate of increase or decrease (second value, decrease) ([2]; different from individual to individual, individuals with decrease, relative to 1 at 1 minute or less, collection to cooling 5 minutes): 0.67 | Rate of increase or decrease (first value, increase) ([2]; different from individual to individual, individuals with increase, relative to 1 at 1 minute or less, collection to cooling 5 minutes): 2.33 | Rate of increase or decrease ([7]; after 4 hours): 2.98 | Increase or decrease ([7]; after 4 hours vs 15 minutes): Increase

O=C1CCNC(=O)N1 [Dihydrouracil]
Increase or decrease [1, 10]: Increase; also recorded: Decrease | Rate of increase or decrease ([9]; detection intensity relative to 1 at 30 minutes, after 1 hour): 0.30 | Increase or decrease ([9]; after 1 hour vs 30 minutes): Decrease | Rate of increase or decrease [2]: 1.42 | Increase or decrease [2]: Increase | Rate of increase or decrease ([7]; after 4 hours): 3.17 | Rate of increase or decrease ([7]; after 12 hours): 1.30 | Increase or decrease ([7]; after 4 hours vs 15 minutes): Increase | Increase or decrease ([7]; after 12 hours vs 15 minutes): Decrease
